From ChEMBL document CHEMBL5523725, “Fragment-Based Anti-inflammatory Agent Design and Target Identification: Discovery of AF-45 as an IRAK4 Inhibitor to Treat Ulcerative Colitis and Acute Lung Injury” (J Med Chem, 2024)
Active and inactive are the calls of the source. The calls are words filed in the database; no cut-off is given here.

Tests used:
RAW264.7 = experiment: Antiinflammatory activity in LPS-induced mouse RAW264.7 cells assessed as inhibition of IL-6 release at 10 uM pretreated for 30 mins followed by LPS stimulation and measured after 24 hrs by ELISA relative to control; type: functional; conditions: time 24.5 hrs
[1] = Cytotoxicity against mouse RAW264.7 cells assessed as cell viability by MTT assay; type: toxicity, cell-based; parameters: concentration or dose not given beside the values; conditions: read-out: Activity
Mus musculus [2] = experiment: Antiinflammatory activity in LPS induced C57BL/6 mouse model of acute lung injury assessed as inhibition of IL-6 release in serum at 20 mg/kg, ip preadministered for 30 mins followed by LPS administration and measured after 6 hrs by ELISA; type: functional, organism-based; conditions: time 6.5 hrs
Mus musculus [3] = experiment: Antiinflammatory activity in LPS induced C57BL/6 mouse model of acute lung injury assessed as inhibition of TNFalpha release in serum at 20 mg/kg, ip preadministered for 30 mins followed by LPS administration and measured after 6 hrs by ELISA; type: functional, organism-based; conditions: time 6.5 hrs
Mus musculus [4] = experiment: Antiinflammatory activity in LPS induced C57BL/6 mouse model of acute lung injury assessed as inhibition of IL-6 release in BALF at 20 mg/kg, ip preadministered for 30 mins followed by LPS administration and measured after 6 hrs by ELISA; type: functional, organism-based; conditions: time 6.5 hrs
Mus musculus [5] = experiment: Antiinflammatory activity in LPS induced C57BL/6 mouse model of acute lung injury assessed as inhibition of TNFalpha release in BALF at 20 mg/kg, ip preadministered for 30 mins followed by LPS administration and measured after 6 hrs by ELISA; type: functional, organism-based; conditions: time 6.5 hrs
Mus musculus [6] = experiment: Antiinflammatory activity in LPS induced C57BL/6 mouse model of acute lung injury assessed as reduction in spleen over activation at 20 mg/kg, ip preadministered for 30 mins followed by LPS administration and measured after 6 hrs by H and E staining based analysis; type: functional, organism-based; conditions: time 6.5 hrs
Mus musculus [7] = experiment: Antiinflammatory activity in LPS induced C57BL/6 mouse model of acute lung injury assessed as reduction in white pulp fusion at 20 mg/kg, ip preadministered for 30 mins followed by LPS administration and measured after 6 hrs by H and E staining based analysis; type: functional, organism-based; conditions: time 6.5 hrs
Mus musculus [8] = experiment: Antiinflammatory activity in LPS induced C57BL/6 mouse model of acute lung injury assessed as reduction in macrophage infiltration in lung at 20 mg/kg, ip preadministered for 30 mins followed by LPS administration and measured after 6 hrs by F4/80 labeling based immunohistochemical analysis; type: functional, organism-based; conditions: time 6.5 hrs
Mus musculus [9] = experiment: Antiinflammatory activity in LPS induced C57BL/6 mouse model of acute lung injury assessed as reduction in over activation of spleen at 20 mg/kg, ip preadministered for 30 mins followed by LPS administration and measured after 6 hrs by F4/80 labeling based immunohistochemical analysis; type: functional, organism-based; conditions: time 6.5 hrs
Mus musculus [10] = experiment: Antiinflammatory activity in LPS induced C57BL/6 mouse model of acute lung injury assessed as reduction in number of macrophages in spleen at 20 mg/kg, ip preadministered for 30 mins followed by LPS administration and measured after 6 hrs by F4/80 labeling based immunohistochemical analysis; type: functional, organism-based; conditions: time 6.5 hrs
Mus musculus [11] = experiment: Anti-colitis activity in male C57BL/6 mouse model of DSS-induced ulcerative colitis assessed as colon length at 100 mg/kg, po administered for 11 days with subsequent administration of DSS for 8 days (reference value: 5.2 cm); type: functional; conditions: time 11 day
Mus musculus [12] = experiment: Antiinflammatory activity in male C57BL/6 mouse model of DSS-induced ulcerative colitis assessed as reduction in spleen to body weight ratio at 100 mg/kg, po administered for 11 days with subsequent administration of DSS for 8 days; type: functional, organism-based; conditions: time 11.0 day
Mus musculus [13] = experiment: Antiinflammatory activity in male C57BL/6 mouse model of DSS-induced ulcerative colitis assessed as reduction in colonic structure destruction at 100 mg/kg, po administered for 11 days with subsequent administration of DSS for 8 days by H and E staining based analysis; type: functional, organism-based; conditions: time 11.0 day
Mus musculus [14] = experiment: Antiinflammatory activity in male C57BL/6 mouse model of DSS-induced ulcerative colitis assessed as preservation of goblet cells at 100 mg/kg, po administered for 11 days with subsequent administration of DSS for 8 days by H and E staining based analysis; type: functional, organism-based; conditions: time 11.0 day
Mus musculus [15] = experiment: Antiinflammatory activity in male C57BL/6 mouse model of DSS-induced ulcerative colitis assessed as restoration of protein status at 100 mg/kg, po administered for 11 days with subsequent administration of DSS for 8 days by H and E staining based analysis; type: functional, organism-based; conditions: time 11.0 day
Mus musculus [16] = experiment: Antiinflammatory activity in male C57BL/6 mouse model of DSS-induced ulcerative colitis assessed as reduction in macrophage infiltration in colon at 100 mg/kg, po administered for 11 days with subsequent administration of DSS for 8 days by F4/80 labeling based immunohistochemistry analysis; type: functional, organism-based; conditions: time 11.0 day
Mus musculus [17] = experiment: Antiinflammatory activity in male C57BL/6 mouse model of DSS-induced ulcerative colitis assessed as reduction in macrophage infiltration in spleen at 100 mg/kg, po administered for 11 days with subsequent administration of DSS for 8 days by F4/80 labeling based immunohistochemistry analysis; type: functional, organism-based; conditions: time 11.0 day
[18] = biological target: T1, Lymphocyte antigen 96 (Mus musculus) (UniProt Q9JHF9); experiment: Thermal stabilization of MD2 in mouse RAW264.7 cells assessed as reduction in decomposition at 10 uM at 45 to 51 degreeC measured after 4 hrs by CETSA; type: cell-based
T1 sequence (whole entry): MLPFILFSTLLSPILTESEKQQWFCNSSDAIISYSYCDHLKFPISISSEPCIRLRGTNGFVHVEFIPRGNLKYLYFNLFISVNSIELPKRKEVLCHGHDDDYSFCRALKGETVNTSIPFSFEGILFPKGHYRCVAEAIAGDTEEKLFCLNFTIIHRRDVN

| Structure (SMILES) | inhibition at 10 µM (RAW264.7) | viability [1] | also measured |
| --- | --- | --- | --- |
| COc1cc2ncnc(Oc3cccc(NC(=O)O[C@H]4CC[C@@H](N)CC4)c3)c2cc1OC | 73.4% | 96.5% | – |
| COc1cc2ncnc(Oc3cccc(NC(=O)N[C@H]4CC[C@@H](NC(=O)CCC5CCCC5)CC4)c3)c2cc1OC | 52.9% | 117% | – |
| COc1cc2nc(Cl)nc(O[C@H]3CC[C@@H](N)CC3)c2cc1OC | 34.3% | 105% | – |
| CCN1CCN(CCOc2ncnc3cc(OC)c(OC)cc23)CC1 | 40% | 90.1% | – |
| COc1cc2ncnc(Oc3cccc(NC(=O)O[C@H]4C[C@@H](N)C4)c3)c2cc1OC | 46.9% | 106% | – |
| COc1cc2ncnc(Oc3cccc(NC(=O)N[C@H]4CC[C@@H](NC(=O)c5ccccn5)CC4)c3)c2cc1OC | 45.4% | 116% | – |
| COc1cc2ncnc(O[C@H]3CC[C@H](N)CC3)c2cc1OC | 57.4% | 93.7% | – |
| COc1cc2ncnc(Oc3cccc(NC(=O)N[C@H]4CC[C@@H](NC(=O)c5ccc(F)cc5Cl)CC4)c3)c2cc1OC | 9.4% | 130% | – |
| COc1cc2ncnc(N[C@H]3CC[C@@H](NCCO)CC3)c2cc1OC | 10.6% | 99.7% | – |
| C[C@@H]1C[C@H]2[C@@H]3CCC4=CC(=O)C=C[C@]4(C)[C@@]3(F)[C@@H](O)C[C@]2(C)[C@@]1(O)C(=O)CO | – | – | Activity (Mus musculus [2]): Active; Activity (Mus musculus [3]): Active; Activity (Mus musculus [4]): Active; Activity (Mus musculus [5]): Active; Activity (Mus musculus [6]): Active; Activity (Mus musculus [7]): Active; Activity (Mus musculus [8]): Active; Activity (Mus musculus [9]): inactive; Activity (Mus musculus [10]): inactive |
| COc1cc2ncnc(N[C@H]3CC[C@@H](NC(=O)c4ccc(F)cc4)CC3)c2cc1OC | 39.9% | 102% | – |
| COc1cc2ncnc(Oc3cccc(NC(=O)N[C@H]4CC[C@@H](NC(=O)c5cccc(F)c5)CC4)c3)c2cc1OC | 45.4% | 121% | – |
| CN[C@H]1CC[C@@H](Nc2ncnc3cc(OC)c(OC)cc23)CC1 | – | 98.2% | inhibition (RAW264.7): inactive |
| Nc1ccc(O)c(C(=O)O)c1 [MESALAMINE] | – | – | Activity (Mus musculus [11]): 6 cm; Activity (Mus musculus [12]): Active; Activity (Mus musculus [13]): Active; Activity (Mus musculus [14]): Active; Activity (Mus musculus [15]): Active; Activity (Mus musculus [16]): Active; Activity (Mus musculus [17]): Active |
| COc1cc2ncnc(Oc3cccc(NC(=O)N[C@H]4CC[C@@H](NC(=O)c5ccc(C)cc5)CC4)c3)c2cc1OC | 72.7% | 124% | – |
| COc1cc2ncnc(Oc3cccc(NC(=O)N[C@H]4CC[C@@H](N)CC4)c3)c2cc1OC | 77.3% | 91.5% | – |
| COc1ccc(C(=O)/C=C/c2cccc(OC)c2OC)cc1 | – | – | Activity [18]: Active |
| COc1cc2ncnc(N[C@H]3CC[C@@H](NS(=O)(=O)c4ccc(C)cc4)CC3)c2cc1OC | 45.4% | 104% | – |

| Structure (SMILES) | inhibition at 10 µM (RAW264.7) | viability [1] | also measured |
| --- | --- | --- | --- |
| COc1cc2ncnc(N[C@H]3CC[C@@H](NCCCN(C)C)CC3)c2cc1OC | 11.1% | 96.5% | – |
| Cn1c(CNC(=O)O[C@H]2C[C@@H](N)C2)nc2ccccc21 | 44.7% | 97.1% | – |
| COc1cc2ncnc(O[C@H]3CC[C@@H](N)CC3)c2cc1OC | 75.8% | 88.9% | – |
| COc1cc2ncnc(NCCc3cccs3)c2cc1OC | 16.1% | 88.1% | – |
| COc1cc2ncnc(Oc3cccc(NC(=O)N[C@H]4CC[C@@H](NC(=O)c5ccc(F)cc5)CC4)c3)c2cc1OC | 52.2% | 123% | – |
| COc1cc2ncnc(N[C@H]3CC[C@H](N)CC3)c2cc1OC | 64.6% | 108% | – |
| COc1cc2ncnc(Oc3cccc(NC(=O)N[C@H]4CC[C@@H](NC(=O)OC(C)(C)C)CC4)c3)c2cc1OC | 2.1% | 92.1% | – |
| COc1cc2ncnc(Oc3cccc(NC(=O)N[C@H]4CC[C@@H](NS(=O)(=O)c5ccccc5)CC4)c3)c2cc1OC | 16% | 112% | – |
| COc1cc2ncnc(N[C@H]3CC[C@@H](N)CC3)c2cc1OC | 83.7% | 91.1% | – |
| COCCOc1cc2ncnc(O[C@H]3CC[C@@H](N)CC3)c2cc1OCCOC | 52.7% | 98.6% | – |
| N[C@H]1C[C@@H](OC(=O)c2nn(-c3ccccc3)ccc2=O)C1 | 33.2% | 89% | – |
| N[C@H]1CC[C@@H](Oc2ncnc3ccccc23)CC1 | 76.8% | 103% | – |
| Cn1c(CNC(=O)O[C@H]2CC[C@@H](N)CC2)nc2ccccc21 | 52.8% | 90.1% | – |
| COc1cc2ncnc(N[C@H]3CC[C@@H](NC(=O)c4ccc(C)cc4)CC3)c2cc1OC | 42.3% | 97.8% | – |
| N[C@H]1CC[C@@H](Oc2ncnc3cc(Cl)ccc23)CC1 | 53.1% | 98.8% | – |
| COc1cc2c(N[C@H]3CC[C@@H](N)CC3)ncnc2cc1OCc1ccccc1 | 88.6% | 86.7% | – |
| N[C@H]1CC[C@@H](OC(=O)c2nn(-c3ccccc3)ccc2=O)CC1 | – | 107% | inhibition (RAW264.7): inactive |
